Patent publication EP0359745B1, “GROWTH FACTOR RECEPTOR” (IMPERIAL CANCER RESEARCH TECHNOLOGY LIMITED, priority 1987, dated 1988)
Non-standard residues stand in square brackets, D forms with d. Residues, ends and D or L forms follow the SMILES beside them. No end group written: not given here.

Experiments:
[1] = biological target: T1, GRP receptor (Mus musculus, UniProt P21729); test: specific [¹²⁵I]GRP binding to intact Swiss 3T3 cells
T1 construct: endogenous in cells; host or cells: Swiss 3T3 cells (mouse fibroblasts)
Protocol: (§1) Cell culture procedure (33), assays of DNA synthesis by ³H-thymidine incorporation (34) ad ¹²⁵I-GRP binding to intact cells (13) were performed as described previously.
(§2) Figure 4. […] Values are expressed as percentage of the specific binding obtained in the absence of antagonists. […] Each point represents the mean of 3 determinations. […] Specific binding (B) is expressed in pmol/10⁶ cells and is shown in a double-reciprocal plot. Each point represents the mean of duplicate determinations. […] After 2 hours, the cultures were washed twice with binding medium then incubated in 1 ml containing 6 mM ethylene glycol bis (succinimidylsuccinate) (EGS) at pH 7.4 for 15 minutes at 15°C. The cultures were then washed twice with cold phosphate-buffered saline and solubilised in 0.1 ml of 2x sample buffer, then immediately heated at 100°C for 5 minutes and electrophoresed on a 10% polyacrylamide gel.

[2] = biological target: Mr 75000-85000 protein (Mus musculus, UniProt P21729); test: ¹²⁵I-GRP affinity labelling (EGS cross-linking) of the Mr 75000-85000 protein in Swiss 3T3 cells, SDS-PAGE and scanning densitometry; assay type: binding; set-up: endogenous in cells; host or cells: Swiss 3T3 cells (mouse fibroblasts); settings: for Mr 75000-85000 protein % of control: ¹²⁵I-GRP (0.5 nM), 15°C, 2.5 h, 6 mM EGS, additions: GRP 360 nM, GRP (14-27) 30 nM, bombesin 30 nM, litorin 92 nM, neuromedin B 220 nM, [D-Arg¹,D-Pro²,D-Trp^7,9,Leu¹¹] substance P 100 »M, GRP (1-16) 3230 nM, PDGF 5 nM, EGF 83 nM, vasopressin 1000 nM, insulin 1 »g/ml, phorbol 12,13 dibutyrate 2000 nM, substance P 740 nM, substance K 880 nM, somatostatin 610 nM, neurotensin 600 nM; for cross-linking of ¹²⁵I-GRP / level of the Mr 75000-85000 protein (in words): summary of Table 1, saturating concentrations of the other mitogens
Protocol: After 2.5 h the cells were washed three times at 15°C with phosphate buffered saline (PBS) ad then incubated for 15 min at 15°C In 1 ml of binding medium, pH 7.4 In the presence of the appropriate cross-linking agent at the concentration indicated. The cross-linking agents (EGS, DSS, DSP and BSCOES) were dissolved in dimethyl sulphoxide immediately prior to use and were added to medium to give a final concentration of dimethylsulphoxide of 1-2%. The cultures were rapidly rinsed twice with PBS at 4°C and solubilized in 0.1ml of 2 x sample buffer 0.2 M Tris-HCl, pH 6.8, 10% (w/v) glycerol, 6% sodium dodecyl sulphate (SDS) (w/v) 4% β-mercaptoethanol (v/v) and 2 mM ethylenediaminetetraacetic acid. Samples were immediately heated at 100°C for 3-5 min and analysed by either one or two-dimensional gel electrophoresis.
Slab gel electrophoresis was performed using 7.5% acrylamide in the separating gel ad 5% in the stacking gel, ad 0.1% SDS (31). After electrophoresis gels were stained, destained and dried down onto paper for autoradiography with Fuji X-ray film (Fuji Photo Film Co. Ltd. Japan). Dried gels were exposed to film for 4-8 days. Two-dimensional gel electrophoresis was performed as described by O'Farrell (32) using isoelectric focusing in the 1st dimension and SDS-polyacrylamide gel electrophoresis (SDS-PAGE) (8% polyacrylamide) in the second dimension. The samples prepared for isoelectric focusing containing 1.4% LKB ampholytes, pH 5-7, plus 0.6% LKD ampholytes, pH 3.5-10, 6M urea, and 2% Nonidet P-40. The Mr 75000-85000 band from autoradiograms was scanned using a Joyce-Loebl double beam densitometer and the areas under specific peaks were measured with a Hewlett-Packard digitizer.
After this time some cells were washed four times with cold (4°C) PBS supplemented with 1 mg/ml BSA, solubilized and total cell associated radioactivity was then determined in a gamma counter. […] The cells were then solubilized and samples were analyzed by SDS-PAGE. After electrophoresis, gels were dried, exposed to film and scanned as described in Materials and Methods. The areas under the individual peaks for the Mr 75000-85000 protein are shown as a function of the concentration of the unlabelled peptide and are expressed as a percentage of the control. […] The level of the Mr 75000-85000 protein expressed in arbitrary units is shown as a function of the concentration of the labelled ligand. Inset: autoradiogram of the gel used for scanning; the Mr 75000-85000 and 160,000 bands are indicated by arrows. All other experimental details were as described in Materials and Methods.
as §2
After the incubation period cultures were treated with 6 mM EGS as described in Materials and Methods. Each value is expressed as a percentage of the level of the Mr 75000-85000 protein obtained with no additons (-). Other experimental details are as described in Materials and Methods.

[3] = tested on: Swiss 3T3 cells; test: GRP-induced DNA synthesis ([³H]thymidine incorporation) in Swiss 3T3 cells; assay type: cell-based, mouse; settings: for ability to inhibit mitogenesis stimulated by GRP: substance P antagonists tested at 50 »m, ranking in words
Protocol: as §1
Figure 3. Inhibition of GRP-induced DNA synthesis by [DPro²]spantide (A) and [DPhe⁵]spantide (D). […] After 40 hours DNA synthesis was estimated by [³H]thymidine incorporation into acid-precipitable material. […] Each point represents the mean of duplicate determinations. […] Values are expressed as a percentage of [³H]thymidine incorporation obtained in the absence of antagonists (100% = 8.6 x 10⁵ cpm per dish). Each point represents the mean of 4 determinations.

[4] = tested on: Swiss 3T3 cells; settings: statement in words, earlier work (reference 13); cited from earlier work
[5] = biological target: T1, GRP receptor; settings: statement in words, earlier work (reference 13); cited from earlier work
[6] = tested on: Swiss 3T3 cells; test: GRP-stimulated rise in cytosolic Ca²⁺ concentration (fura-2 fluorescence) in Swiss 3T3 cells; assay type: cell-based, mouse
Protocol: (§3) Figure 5. […] Left: Effects of antagonists on [Ca²⁺]i. Quiescent Swiss 3T3 cells grown on Cytodex 2 beads were washed twice with DMEM and incubated for 10 minutes with fura-2 tetracetoxymethyl ester at 1 »m, then washed three times and suspended in 2 ml of electrolyte solution (6) in the fluorimeter at 37°C and stirred. Fluorescence was recorded continuously in a Perkins-Elmer LS5 luminescence spectrometer with an excitation wavelength of 335 nm and emission wavelength of 510 nm. After a period of equilibration, the following additions were made: solvent, S; antagonist A at 5 »m, A, 5 and 20 »m, A, 20; antagonist D at 5»m, D, 5. […] Values are expressed as percentages of the specific binding obtained with [¹²⁵I]EGF alone at 0.2 nM. The non-specific binding was obtained by the addition of 500-fold excess of unlabelled EGF. Each point represents the mean of 6 determinations.

[7] = tested on: Swiss 3T3 cells; test: reversal of the inhibition of [¹²⁵I]EGF binding induced by GRP in Swiss 3T3 cells; assay type: cell-based, mouse; settings: read-out: Half-maximal reversal of inhibition (of [¹²⁵I]EGF binding by GRP); [¹²⁵I]EGF 0.2 nM, GRP 3.6 nM, 1 hour, 37°C
Protocol: as §3

[8] = tested on: H69 cells; test: growth of SCLC cell line in serum-free medium (cell number, Coulter Counter); assay type: cell-based
Protocol: Figure 6. […] Stock cultures of cell lines H69, H128 and H417 were maintained in RPMI 1640 medium with 10% fetal bovine serum (heat inactivated) in a humidified atmosphere of 10% CO₂:90% air at 37°C. They were passaged every 7 days. Identical growth was obtained in the serum-free medium of RPMI 1640 supplemented with HITES (29) (hydrocortisone, 10 nM; insulin, 5 »g/ml; transferrin, 100 »g/ml; 17β-estradiol, 10 nM; sodium selenite, 30 nM) and 0.25% bovine serum albumin. […] Cell number was determined at intervals over 14 days in a Coulter Counter after disaggregation of cell clumps by syringing through 19G and 21G needles. Each point represents the mean of 3 determinations.
Figure 7. Inhibition of SCLC growth in vitro by [DPro²]spantide and [DPhe⁵]spantide is concentration-dependent. Cultures of H69 cells were washed twice with RPMI 1640 medium then incubated in serum-free medium (as in Figure 6) in the absence (●) or presence of various concentrations of [DPro²]spantide (o,A) and [DPhe⁵]spantide (△,D). Cell number was determined in a Coulter Counter after disaggregation of cell clumps by syringing through 19G and 21 G needles. Samples were incubated for 13 days, when the controls (inset) had achieved 10-fold increase in number, indicated by the arrow. Each point represents the mean (± standard deviation) of 5 determinations.

Mr 75000-85000 protein, sequence (P21729 whole entry): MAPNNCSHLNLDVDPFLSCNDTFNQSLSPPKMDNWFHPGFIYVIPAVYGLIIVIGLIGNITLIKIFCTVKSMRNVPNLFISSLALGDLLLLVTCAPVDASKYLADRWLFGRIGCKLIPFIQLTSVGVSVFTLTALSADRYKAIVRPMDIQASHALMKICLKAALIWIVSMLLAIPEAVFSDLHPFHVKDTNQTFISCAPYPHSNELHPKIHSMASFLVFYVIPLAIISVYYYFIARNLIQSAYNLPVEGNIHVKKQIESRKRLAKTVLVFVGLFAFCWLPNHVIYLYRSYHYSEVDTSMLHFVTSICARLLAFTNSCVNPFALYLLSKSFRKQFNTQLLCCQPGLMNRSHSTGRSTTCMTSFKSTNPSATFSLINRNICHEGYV
T1 sequence (P21729 whole entry): as above

CC(C)C[C@H](NC(=O)[C@H](CC(C)C)NC(=O)[C@@H](Cc1c[nH]c2ccccc12)NC(=O)[C@H](Cc1ccccc1)NC(=O)[C@@H](Cc1c[nH]c2ccccc12)NC(=O)[C@H](CCC(N)=O)NC(=O)[C@@H](Cc1ccccc1)NC(=O)[C@@H]1CCCN1C(=O)[C@H](CCCCN)NC(=O)[C@@H]1CCCN1C(=O)[C@H](N)CCCN=C(N)N)C(N)=O [[DPhe⁵]spantide, D-Arg-Pro-Lys-Pro-D-Phe-Gln-D-Trp-Phe-D-Trp-Leu-Leu-NH₂] (H-[dR]PKP[dF]Q[dW]F[dW]LL-NH2)
IC50 ([1]; read-out: Half-maximal inhibition of binding): 2300 nM
IC50 ([2]; read-out: Half-maximal inhibition (affinity-labelling of the Mr 75000-85000 protein)): 5.5 µM

Neurotensin: unrelated factor
Mr 75000-85000 protein % of control [2]: 93 % of control

Spantide
antagonist activity ([3]; even at 100 uM): no antagonist activity
ability to inhibit mitogenesis stimulated by GRP [3]: less potent than either A or D

CSCC[C@H](NC(=O)[C@H](CC(C)C)NC(=O)CNC(=O)[C@H](Cc1ccccc1)NC(=O)[C@H](Cc1ccccc1)NC(=O)[C@H](CCC(N)=O)NC(=O)[C@H](CCC(N)=O)NC(=O)[C@@H]1CCCN1C(=O)[C@H](CCCCN)NC(=O)[C@@H]1CCCN1C(=O)[C@@H](N)CCCNC(=N)N)C(N)=O [Substance P]
stimulation of DNA synthesis [4]: nor stimulates DNA synthesis
inhibition of GRP binding to Swiss 3T3 cells [5]: neither inhibits
cross-linking of ¹²⁵I-GRP / level of the Mr 75000-85000 protein (in words) [2]: no effect

GRP (14-27): the 14-27 amino acid fragment of GRP (MYPRGNHWAVGHLM; ends and bridges not checked; UniProt P07492 37-50, looked up, fragment)
Mr 75000-85000 protein % of control [2]: 0.4 % of control

Somatostatin: neuropeptide
cross-linking of ¹²⁵I-GRP / level of the Mr 75000-85000 protein (in words) [2]: no effect
Mr 75000-85000 protein % of control [2]: 97 % of control

Vasopressin: mitogen for Swiss 3T3 cells
cross-linking of ¹²⁵I-GRP / level of the Mr 75000-85000 protein (in words) [2]: not substantially affected
Mr 75000-85000 protein % of control [2]: 94 % of control

CC(C)C[C@H](NC(=O)[C@H](CC(C)C)NC(=O)[C@@H](Cc1c[nH]c2ccccc12)NC(=O)[C@H](Cc1ccccc1)NC(=O)[C@@H](Cc1c[nH]c2ccccc12)NC(=O)[C@H](CCC(N)=O)NC(=O)[C@@H](Cc1ccccc1)NC(=O)[C@@H]1CCCN1C(=O)[C@H](CCCCN)NC(=O)[C@@H]1CCCN1C(=O)[C@H](N)CCCNC(=N)N)C(N)=O [[DPhe⁵]spantide, D-Arg-Pro-Lys-Pro-D-Phe-Gln-D-Trp-Phe-D-Trp-Leu-Leu-NH₂] (H-[dR]PKP[dF]Q[dW]F[dW]LL-NH2)
IC50 ([3]; GRP 3.6 nM, 40 hours, Figure 3 right, read-out: Half-maximal inhibition of DNA synthesis): 22 µM
concentration of GRP required to produce half-maximal stimulation of DNA synthesis ([3]; antagonist at 20 »m, Figure 3 left): markedly increased
fold more potent than [DPro²]spantide in inhibiting DNA synthesis induced by GRP ([3]; ratio of half-maximal concentrations): 5.4 fold
ability to inhibit mitogenesis stimulated by GRP [3]: most potent GRP antagonist
affinity of the receptors of [¹²⁵I]GRP ([1]; 10 »m antagonist, double reciprocal plot, number of binding sites unchanged): markedly reduces the affinity
difference in potency ([1]; [DPhe⁵]spantide versus [DPro²]spantide, inhibition of specific [¹²⁵I]GRP binding): 6.1 fold
rise in [Ca²⁺]i caused by the addition of GRP ([6]; GRP (1 nM), antagonist at 5 »m): effective
response to PDGF ([Ca²⁺]i) ([6]; antagonist at 5 »m, PDGF at 1 nM, specificity): did not prevent
fold more potent than [DPro²]spantide in this assay ([6]; prevention of the GRP-induced rise in [Ca²⁺]i): at least 4 fold
EC50 [7]: 8.7 µM
IC50 ([8]; H69 cells, serum-free medium, 13 days, read-out: half-maximal effect (inhibition of growth)): 24 µM
potency of Antagonist D over Antagonist A ([8]; H69 growth inhibition): more than 5 fold

GRP (1-16): the 1-16 amino acid fragment of GRP (amino-terminal fragment) (VPLPAGGGTVLTKMYP; Gastrin-releasing peptide; UniProt P07492 24-39, looked up, fragment)
stimulation of DNA synthesis [4]: nor stimulates DNA synthesis
inhibition of GRP binding to Swiss 3T3 cells [5]: neither inhibits
cross-linking of ¹²⁵I-GRP / level of the Mr 75000-85000 protein (in words) [2]: no reduction
Mr 75000-85000 protein % of control [2]: 93 % of control
